The values below come from publication PMC4317638 (Emerging Microbes & Infections, 2014).

Series [1] relates to Ebola VLP entry into HeLa cells. Nature of the series: microbe, parasite or virus in culture. It is filed as cell-based, Ebola virus. As to conditions: for IC90: read-out: Block Ebola VLP entry IC90; for Emax: read-out: Block Ebola VLP entry Max. Inh.
Series [2] has as its system Ebola virus infection. As to conditions: cited from earlier work.
For series [3], the system named is Ebola virus infection. As to conditions: in vivo; cited from earlier work.
The next series can be described thus: in vitro. As to conditions: human, Cytotoxicity IC50.
The mark [4] stands for this setting: read-out: Block Ebola VLP entry IC50.
[5] abbreviates: Zaire ebolavirus, HeLa, read-out: Block Ebola VLP entry IC50.
Setting [6] is: Zaire ebolavirus, HeLa, read-out: IC50 of blocking Ebola VLP entry.

Like-named read-outs stand apart in the source and are kept apart here. A value given as a limit tells only on which side of the number the result lay.

Regarding `CCN(CC)CCOc1ccc(C(=C(Cl)c2ccccc2)c2ccccc2)cc1` [Clomiphene], in series [1] (Zaire ebolavirus, HeLa), the 90% effect concentration (IC90) is 5.34 µM and the Emax came out at 92%. In the series with Ebola virus infection [2], the “Block of Ebola virus infection” value was “effectively block Ebola virus infection”. For the same compound, the “Efficacy in a mouse infection model” value in the series with Ebola virus infection [3] was “effective in a mouse infection model”. In addition, inhibition in “in vitro” was half-maximal at 91.4 µM (IC50).

For the compound `COc1cccc2c1C(=O)c1c(O)c3c(c(O)c1C2=O)C[C@@](O)(C(C)=O)C[C@@H]3O[C@H]1C[C@H](N)[C@H](O)[C@H](C)O1` [Daunorubicin], in series [1], the “Block Ebola VLP entry Max. Inh.” value is reported as 96%, the “Selectivity Index” value stood at 103 fold and the IC90 was 4.45 µM. Besides, the half-inhibitory concentration (IC50) in series [1] (setting [4]) was determined as 2.43 µM. In the series on HeLa cells (human), this compound had an IC50 of 250 µM.

Regarding `C[C@H]1O[C@@H](O[C@H]2[C@@H](O)C[C@H](O[C@H]3[C@@H](O)C[C@H](O[C@H]4CC[C@@]5(C)[C@H](CC[C@@H]6[C@@H]5C[C@@H](O)[C@]5(C)[C@@H](C7=CC(=O)OC7)CC[C@]65O)C4)O[C@@H]3C)O[C@@H]2C)C[C@H](O)[C@@H]1O` [Digoxin], the “Selectivity Index” value in series [1] amounted to 327 fold. For the same compound, the IC50 in series [1] (setting [5]) stood at 0.763 µM; in series [1] (setting [6]), 0.76 µM; in “in vitro” it was 250 µM. Further, the IC90 in series [1] (Zaire ebolavirus, HeLa) stood at 3.45 µM. In addition, the Emax in series [1] (Zaire ebolavirus, HeLa) came out at 68%. In addition, in the series on HeLa cells, the “Cytotoxicity” value is “cytotoxicity at a compound concentration similar to that effective in blocking Ebola VLP entry”.

For `N=C(N)NN=C(/C=C/c1ccc([N+](=O)[O-])o1)/C=C/c1ccc([N+](=O)[O-])o1` [Nitrovin], in series [1], the “Block Ebola VLP entry Max. Inh.” value was found to be 95% and the IC90 came to 7.14 µM. The IC50 in series [1] (setting [4]) is 4.85 µM. Besides, in the series on HeLa cells, the IC50 is greater than 500 µM.

Consider `CC[C@@H]([C@H](C)O)n1ncn(-c2ccc(N3CCN(c4ccc(OC[C@@H]5CO[C@@](Cn6cncn6)(c6ccc(F)cc6F)C5)cc4)CC3)cc2)c1=O` [Posaconazole], for which, in series [1], the “Selectivity Index” value is greater than 65 fold. Further, the IC50 in series [1] (setting [5]) was found to be 7.69 µM. Besides, in series [1] (Zaire ebolavirus, HeLa), the concentration for an effect of 90% (IC90) was found to be 8.33 µM and the Emax was 77%. Also, the IC50 in the series “in vitro” was greater than 500 µM.

`CCCN(CCC)C(=O)C(CCC(=O)OCCCN1CCN(CCOC(=O)Cc2c(C)n(C(=O)c3ccc(Cl)cc3)c3ccc(OC)cc23)CC1)NC(=O)c1ccccc1` (centres unmarked) [Proglumetacin]: in series [1], the “Selectivity Index” value is reported as greater than 73 fold. In series [1] (setting [5]), the IC50 was 6.85 µM. Moreover, in series [1] (Zaire ebolavirus, HeLa), the IC90 is 17.3 µM and the Emax amounted to 93%. Besides, the half-inhibitory concentration (IC50) in “in vitro” was greater than 500 µM.

In the case of `CCCNCC(O)COc1ccccc1C(=O)CCc1ccccc1` (centres unmarked) [Propafenone], in series [1], the “Selectivity Index” value was greater than 80 fold. Besides, the IC50 is 6.25 µM in series [1] (setting [5]), 6.2 µM in series [1] (setting [6]) and greater than 500 µM in the series “in vitro”. Also, the 90% effect concentration (IC90) in series [1] (Zaire ebolavirus, HeLa) was 23.8 µM. In series [1] (Zaire ebolavirus, HeLa), the Emax was 100%.

For `O=C(c1ccc(OCCN2CCCCC2)cc1)c1c(-c2ccc(O)cc2)sc2cc(O)ccc12` [Raloxifene/Evista, Raloxifene], the “Selectivity Index” value in series [1] was greater than 271 fold. Further, the IC50 is 1.84 µM in series [1] (setting [5]), 1.8 µM in series [1] (setting [6]) and greater than 500 µM in the series “in vitro”. For the same compound, the IC90 in series [1] (Zaire ebolavirus, HeLa) stood at 9.01 µM. The Emax in series [1] (Zaire ebolavirus, HeLa) stood at 100%.

As to `OCc1cc(C(O)CNCCCCCCOCCCCc2ccccc2)ccc1O` (centres unmarked) [Salmeterol], the “Selectivity Index” value in series [1] is greater than 52 fold. The half-maximal inhibitory concentration (IC50) in series [1] (setting [5]) is 9.68 µM. In series [1] (Zaire ebolavirus, HeLa), the 90% effect concentration (IC90) was found to be 13 µM and the Emax amounted to 90%. The IC50 in the series “in vitro” was greater than 500 µM.

As for `CCN(CC)CCNC(=O)c1c(C)[nH]c(/C=C2\C(=O)Nc3ccc(F)cc32)c1C` [Sunitinib], the “Selectivity Index” value in series [1] was 77 fold. Besides, the IC50 in series [1] (setting [5]) amounted to 1.91 µM. Besides, in series [1] (Zaire ebolavirus, HeLa), the 90% effect concentration (IC90) turned out to be 3.82 µM and the Emax was 90%. This compound also registered an IC50 in “in vitro” of 148 µM.

Consider `CC/C(=C(\c1ccccc1)c1ccc(OCCN(C)C)cc1)c1ccccc1` [Tamoxifen], for which, in series [1] (Zaire ebolavirus, HeLa), the 90% effect concentration (IC90) turned out to be 3.15 µM and the Emax was found to be 97%. The compound also yielded an IC50 in “in vitro” of 99.8 µM.

As to `CN1CCN(CCCN2c3ccccc3Sc3ccc(S(=O)(=O)N(C)C)cc32)CC1` [Thioproperazine], the IC50 in series [1] (setting [5]) was 4.32 µM; in the series “in vitro”, greater than 500 µM. The 90% effect concentration (IC90) in series [1] (Zaire ebolavirus, HeLa) was 12.5 µM. Also, the Emax in series [1] (Zaire ebolavirus, HeLa) is 103%.

Consider `CN1CCN(CC/C=C2/c3ccccc3Sc3ccc(S(=O)(=O)N(C)C)cc32)CC1` [Thiothixene], for which the “Selectivity Index” value in series [1] is 36 fold. Further, the IC50 in series [1] (setting [5]) was found to be 1.92 µM; in series [1] (setting [6]), 1.9 µM; in “in vitro”, 70.1 µM. The IC90 in series [1] (Zaire ebolavirus, HeLa) was 7.18 µM. Moreover, the Emax in series [1] (Zaire ebolavirus, HeLa) turned out to be 100%.

For the compound `CCN(CC)CCOc1ccc2c(c1)C(=O)c1cc(OCCN(CC)CC)ccc1-2` [Tilorone], in series [1], the “Selectivity Index” value is greater than 146 fold. In addition, in series [1] (setting [5]), the half-inhibitory concentration (IC50) worked out at 3.43 µM. In addition, in series [1] (Zaire ebolavirus, HeLa), the IC90 is 19 µM and the Emax is 100%. The compound further registered an IC50 in the series “in vitro” greater than 500 µM.

Consider `CC[C@@]1(O)C(=O)OCc2c1cc1n(c2=O)Cc2cc3c(CN(C)C)c(O)ccc3nc2-1` [Topotecan], for which, in series [1], the “Selectivity Index” value was greater than 130 fold. The IC50 in series [1] (setting [5]) stood at 3.85 µM. Also, in series [1] (Zaire ebolavirus, HeLa), the concentration for an effect of 90% (IC90) is 10.8 µM and the Emax is 107%. Besides, in the series “in vitro”, the 50% inhibitory concentration (IC50) is greater than 500 µM.

As for `CN(C)CCOc1ccc(/C(=C(/CCCl)c2ccccc2)c2ccccc2)cc1` [Toremifene], the “Selectivity Index” value in series [1] was 316 fold. Also, the half-inhibitory concentration (IC50) in series [1] (setting [5]) is 0.566 µM; in series [1] (setting [6]), 0.56 µM; in series [1] (read-out: IC50 of blocking Ebola VLP entry), 0.55 µM; in “in vitro”, 180 µM. Further, in series [1] (Zaire ebolavirus, HeLa), the IC90 is 3.73 µM. Besides, the Emax in series [1] (Zaire ebolavirus, HeLa) was found to be 98%. Further, the “Block of Ebola virus infection” value with Ebola virus infection [2] is given as “effectively block Ebola virus infection”. Moreover, the “Efficacy in a mouse infection model” value with Ebola virus infection [3] was “effective in a mouse infection model”.

As for `CN1CCN(CCCN2c3ccccc3Sc3ccc(C(F)(F)F)cc32)CC1` [Trifluoperazine], the “Selectivity Index” value in series [1] came to 21 fold. The results for the IC50 (in series [1] (setting [5]); in series [1] (setting [6]); in the series with HeLa cells (human)) were 4.48 µM, 4.4 µM and 97 µM, respectively. Besides, in series [1] (Zaire ebolavirus, HeLa), the IC90 was determined as 12 µM. In addition, the Emax in series [1] (Zaire ebolavirus, HeLa) is 97%.

Regarding `CC[C@]1(O)C[C@@H]2CN(CCc3c([nH]c4ccccc34)[C@@](C(=O)OC)(c3cc4c(cc3OC)N(C)[C@H]3[C@@](O)(C(=O)OC)[C@H](OC(C)=O)[C@]5(CC)C=CCN6CC[C@]43[C@@H]65)C2)C1` [Vinblastine], the “Selectivity Index” value in series [1] is given as >10 324 fold. The concentration for half-maximal inhibition (IC50) in series [1] (setting [5]) came to 0.048 µM. In series [1] (Zaire ebolavirus, HeLa), the concentration for an effect of 90% (IC90) came to 0.13 µM and the Emax came to 87%. Moreover, in “in vitro”, the IC50 was greater than 500 µM.

Consider `CC[C@]1(O)C[C@H]2CN(CCc3c([nH]c4ccccc34)[C@@](C(=O)OC)(c3cc4c(cc3OC)N(C=O)[C@H]3[C@@](O)(C(=O)OC)[C@H](OC(C)=O)[C@]5(CC)C=CCN6CC[C@]43[C@@H]65)C2)C1` [Vincristine], for which the “Selectivity Index” value in series [1] was greater than 3554 fold. The half-maximal inhibitory concentration (IC50) in series [1] (setting [5]) is 0.141 µM; in series [1] (setting [6]), 0.14 µM; in “in vitro” it was greater than 500 µM. For the same compound, in series [1] (Zaire ebolavirus, HeLa), the IC90 was determined as 0.258 µM. Moreover, the Emax in series [1] (Zaire ebolavirus, HeLa) was determined as 83%.

In the case of `CCC1=C[C@@H]2CN(C1)Cc1c([nH]c3ccccc13)[C@@](C(=O)OC)(c1cc3c(cc1OC)N(C)[C@H]1[C@@](O)(C(=O)OC)[C@H](OC(C)=O)[C@]4(CC)C=CCN5CC[C@]31[C@@H]54)C2` [Vinorelbine/Navelbine, Vinorelbine], the “Selectivity Index” value in series [1] was greater than 7546 fold. For the same compound, the concentration for half-maximal inhibition (IC50) in series [1] (setting [5]) was 0.066 µM; in “in vitro”, greater than 500 µM. Also, the IC90 in series [1] (Zaire ebolavirus, HeLa) is 0.19 µM. Further, in series [1] (Zaire ebolavirus, HeLa), the Emax was 90%.

For Spiramycin, in series [1], the “Block Ebola VLP entry Max. Inh.” value came out at 92% and the IC90 came to 11.7 µM. Further, the IC50 with HeLa cells was greater than 500 µM.

The term IC90 denotes the concentration at which the effect reaches the 90% level. The term IC50 denotes the concentration that gives 50% inhibition.
